# Where “and” joins values, the source holds several entries; their conditions need not be identical. Equal values may be shown once.
# Legend:
# Mycobacterium avium 104 = assay: MIC, antibacterial specificity; assay type: cell-based
# [1] = system: Acinetobacter baumannii ATCC19606T; assay: MIC, antibacterial specificity; assay type: cell-based
# [2] = system: Salmonella enterica serovar Enteritidis NCTC13349; assay: MIC, antibacterial specificity; assay type: cell-based
# [3] = system: human monocyte-derived macrophages; assay: Cytotoxicity, AlamarBlue method; assay type: cell-based; details: for AlamarBlue fluorescence 530/25,590/35 (raw well reading): 72 h
# Method: (§1) The blood was collected from healthy donors and the peripheral blood mononuclear cells were isolated by Ficoll-Paque Plus (GE Healthcare, Freiburg, Germany) density gradient centrifugation as previously described ([Machado et al., 2016]). […] Fresh medium was added at day 4 post isolation. The effect of the compounds on human monocyte-derived macrophages was evaluated using the AlamarBlue method (Molecular Probes, Life Technologies) ([O’Brien et al., 2000]), and by measuring the release of the lactate dehydrogenase (LDH) into the culture supernatants using the Pierce LDH Cytotoxicity Assay (ThermoFisher Scientific, Waltham, MA, USA) ([Chan, Moriwaki & Rosa, 2013]) according to the manufacturer’s instructions. Briefly, 5 × 10^4 cells were seeded in 96-well microplates treated with the compounds, and incubated at 37 °C with 5% CO2. After 72 h of treatment, the cell viability was assessed. For the AlamarBlue method, the dye was added to each well to a final concentration of 10% and incubated overnight at 37 °C and 5% CO2. The fluorescence was measured with a 540/35 excitation filter and a 590/20 emission filter in a Synergy HT multi-mode microplate reader. The release of LDH from damaged cells into culture supernatants, as an indicator of cytotoxicity, was measured in serum-free medium. Here the amount of enzyme activity correlates to the number of damaged cells. The specific lysis was calculated as follows: (treated cells—spontaneous LDH release)/ (maximum LDH release—spontaneous LDH release) ×100.
# [4] = system: human monocyte-derived macrophages; assay: Cytotoxicity, LDH release; assay type: cell-based; details: 5 µM; 3 days
# Method: as §1
# E. coli AG100 = assay: Intracellular ATP levels determination; assay type: cell-based, Escherichia coli
# Method: The ATP levels were measured using the ATP Determination Kit (Invitrogen, Life Technologies, Paisley, UK) according to the manufacturer’s instructions. […] A drug-free control was included in the assay to monitor the normal growth of the strain. Aliquots of bacteria were collected at 0, 1, 2, 3, 4, 5, 6, and 24 h of incubation at 37 °C, with shaking, inactivated by heating and immediately deep frozen. […] CPZ and PAβN were included for comparison.
# E. coli AG100A = assay: EtBr efflux by real-time fluorometry; details: 20 µM, without glucose
# Method: Control tubes with only cells and cells with and without 0.4% glucose were included. The fluorescence was measured in a Rotor-Gene 3000 and the data was acquired every 30 s for 30 min at 37 °C. The efflux activity was quantified by comparing the fluorescence data obtained under conditions that promote efflux (presence of glucose and absence of efflux inhibitor) with the data from the control in which the bacteria are under conditions of no efflux (presence of an inhibitor and no energy source).
# [5] = system: Staphylococcus aureus ATCC25923; assay: MIC, antibacterial specificity; assay type: cell-based
# [6] = three days of exposure, AlamarBlue
smiles,measurement,setting,value
"CCCOc1ccc(-c2cc(OCCN3CCNCC3)c3ccccc3n2)cc1 [PQQ4R, 4-(2-(piperazin-1-yl)ethoxy)-2-(4-propoxyphenyl) quinolone]",MIC,Mycobacterium avium 104,32 µg/mL
same,MIC,[1],128 µg/mL
same,MIC,[2],256 µg/mL
same,"AlamarBlue fluorescence 530/25,590/35 (raw well reading)",[3]; 0.625 uM,4943 and 4771 and 4650
same,"AlamarBlue fluorescence 530/25,590/35 (raw well reading)",[3]; 1.25 uM,4755 and 4559 and 4604
same,"AlamarBlue fluorescence 530/25,590/35 (raw well reading)",[3]; 5 uM,468 and 451 and 495
same,"AlamarBlue fluorescence 530/25,590/35 (raw well reading)",[3]; 10 uM,253 and 248
same,"AlamarBlue fluorescence 530/25,590/35 (raw well reading)",[3]; 20 uM,256 and 246 and 248
same,"AlamarBlue fluorescence 530/25,590/35 (raw well reading)",[3]; 40 uM,254 and 251 and 248
same,"AlamarBlue fluorescence 530/25,590/35 (raw well reading)",[3]; 80 uM,254 and 250 and 251
same,"AlamarBlue fluorescence 530/25,590/35 (raw well reading)",[3]; 160 uM,259 and 263 and 255
same,CC10,[3]; [6],9.21 µM
same,CC90,[3]; [6],12.7 µM
same,increase in LDH release,[4],52.45%
same,ATP levels during the first 3 h of exposure,"E. coli AG100; AG100, 320 µM (1/2 MIC) and 640 µM (MIC), same level as drug-free control",remained constant
same,ATP production less than that of the drug-free control,"E. coli AG100; AG100, half MIC (320 µM), 24 h of exposure",80%
same,ATP - luciferase:Lum,"E. coli AG100; PQQ4R MIC, T1",438 and 716
same,ATP - luciferase:Lum,"E. coli AG100; PQQ4R MIC, T2",453 and 417
same,ATP - luciferase:Lum,"E. coli AG100; PQQ4R MIC, T3",588 and 696
same,ATP - luciferase:Lum,"E. coli AG100; PQQ4R MIC, T4",454 and 413
same,ATP - luciferase:Lum,"E. coli AG100; PQQ4R MIC, T5",701 and 675
same,ATP - luciferase:Lum,"E. coli AG100; PQQ4R MIC, T6",445 and 588
same,ATP - luciferase:Lum,"E. coli AG100; PQQ4R MIC, T24",545 and 530
same,ATP - luciferase:Lum,"E. coli AG100; PQQ4R half MIC, T1",406 and 431
same,ATP - luciferase:Lum,"E. coli AG100; PQQ4R half MIC, T2",561 and 463
same,ATP - luciferase:Lum,"E. coli AG100; PQQ4R half MIC, T3",373 and 549
same,ATP - luciferase:Lum,"E. coli AG100; PQQ4R half MIC, T4",467 and 479
same,ATP - luciferase:Lum,"E. coli AG100; PQQ4R half MIC, T5",511 and 436
same,ATP - luciferase:Lum,"E. coli AG100; PQQ4R half MIC, T6",560 and 587
same,ATP - luciferase:Lum,"E. coli AG100; PQQ4R half MIC, T24",4358 and 4198
same,EtBr fluorescence (Channel Cycling A.530/585hp),E. coli AG100A; cycle 1,5.807
same,EtBr fluorescence (Channel Cycling A.530/585hp),E. coli AG100A; cycle 2,5.662
same,EtBr fluorescence (Channel Cycling A.530/585hp),E. coli AG100A; cycle 3,5.478
same,EtBr fluorescence (Channel Cycling A.530/585hp),E. coli AG100A; cycle 4,5.356
same,EtBr fluorescence (Channel Cycling A.530/585hp),E. coli AG100A; cycle 5,5.183
same,EtBr fluorescence (Channel Cycling A.530/585hp),E. coli AG100A; cycle 6,5.1485
same,EtBr fluorescence (Channel Cycling A.530/585hp),E. coli AG100A; cycle 7,5.025
same,EtBr fluorescence (Channel Cycling A.530/585hp),E. coli AG100A; cycle 8,4.924
same,EtBr fluorescence (Channel Cycling A.530/585hp),E. coli AG100A; cycle 9,4.937
same,EtBr fluorescence (Channel Cycling A.530/585hp),E. coli AG100A; cycle 10,4.811
same,EtBr fluorescence (Channel Cycling A.530/585hp),E. coli AG100A; cycle 11,4.773
same,EtBr fluorescence (Channel Cycling A.530/585hp),E. coli AG100A; cycle 12,4.602
same,EtBr fluorescence (Channel Cycling A.530/585hp),E. coli AG100A; cycle 13,4.634
same,EtBr fluorescence (Channel Cycling A.530/585hp),E. coli AG100A; cycle 14,4.745
same,EtBr fluorescence (Channel Cycling A.530/585hp),E. coli AG100A; cycle 15,4.684
same,EtBr fluorescence (Channel Cycling A.530/585hp),E. coli AG100A; cycle 16,4.629
same,EtBr fluorescence (Channel Cycling A.530/585hp),E. coli AG100A; cycle 17,4.631
same,EtBr fluorescence (Channel Cycling A.530/585hp),E. coli AG100A; cycle 18,4.599
same,EtBr fluorescence (Channel Cycling A.530/585hp),E. coli AG100A; cycle 19,4.579
same,EtBr fluorescence (Channel Cycling A.530/585hp),E. coli AG100A; cycle 20,4.522
same,EtBr fluorescence (Channel Cycling A.530/585hp),E. coli AG100A; cycle 21,4.504
same,EtBr fluorescence (Channel Cycling A.530/585hp),E. coli AG100A; cycle 22,4.567
same,EtBr fluorescence (Channel Cycling A.530/585hp),E. coli AG100A; cycle 23,4.591
same,EtBr fluorescence (Channel Cycling A.530/585hp),E. coli AG100A; cycle 24,4.544
same,EtBr fluorescence (Channel Cycling A.530/585hp),E. coli AG100A; cycle 25,4.652
same,EtBr fluorescence (Channel Cycling A.530/585hp),E. coli AG100A; cycle 26,4.627
same,EtBr fluorescence (Channel Cycling A.530/585hp),E. coli AG100A; cycle 27,4.498
same,EtBr fluorescence (Channel Cycling A.530/585hp),E. coli AG100A; cycle 28,4.577
same,EtBr fluorescence (Channel Cycling A.530/585hp),E. coli AG100A; cycle 29,4.648
same,EtBr fluorescence (Channel Cycling A.530/585hp),E. coli AG100A; cycle 30,4.639
same,EtBr fluorescence (Channel Cycling A.530/585hp),E. coli AG100A; cycle 31,4.704
same,EtBr fluorescence (Channel Cycling A.530/585hp),E. coli AG100A; cycle 32,4.705
same,EtBr fluorescence (Channel Cycling A.530/585hp),E. coli AG100A; cycle 33,4.739
same,EtBr fluorescence (Channel Cycling A.530/585hp),E. coli AG100A; cycle 34,4.713
same,EtBr fluorescence (Channel Cycling A.530/585hp),E. coli AG100A; cycle 35,4.766
same,EtBr fluorescence (Channel Cycling A.530/585hp),E. coli AG100A; cycle 36,4.793
same,EtBr fluorescence (Channel Cycling A.530/585hp),E. coli AG100A; cycle 37,4.818
same,EtBr fluorescence (Channel Cycling A.530/585hp),E. coli AG100A; cycle 38,4.849
same,EtBr fluorescence (Channel Cycling A.530/585hp),E. coli AG100A; cycle 39,4.826
same,EtBr fluorescence (Channel Cycling A.530/585hp),E. coli AG100A; cycle 40,4.8647
same,EtBr fluorescence (Channel Cycling A.530/585hp),E. coli AG100A; cycle 41,4.7891
same,EtBr fluorescence (Channel Cycling A.530/585hp),E. coli AG100A; cycle 42,4.94
same,EtBr fluorescence (Channel Cycling A.530/585hp),E. coli AG100A; cycle 43,5.003
same,EtBr fluorescence (Channel Cycling A.530/585hp),E. coli AG100A; cycle 44,5
same,EtBr fluorescence (Channel Cycling A.530/585hp),E. coli AG100A; cycle 45,5.002
same,EtBr fluorescence (Channel Cycling A.530/585hp),E. coli AG100A; cycle 46,5.099
same,EtBr fluorescence (Channel Cycling A.530/585hp),E. coli AG100A; cycle 47,5.05
same,EtBr fluorescence (Channel Cycling A.530/585hp),E. coli AG100A; cycle 48,5.085
same,EtBr fluorescence (Channel Cycling A.530/585hp),E. coli AG100A; cycle 49,5.044
same,EtBr fluorescence (Channel Cycling A.530/585hp),E. coli AG100A; cycle 50,5.1253
same,EtBr fluorescence (Channel Cycling A.530/585hp),E. coli AG100A; cycle 51,5.103
same,EtBr fluorescence (Channel Cycling A.530/585hp),E. coli AG100A; cycle 52,5.071
same,EtBr fluorescence (Channel Cycling A.530/585hp),E. coli AG100A; cycle 53,5.2927
same,EtBr fluorescence (Channel Cycling A.530/585hp),E. coli AG100A; cycle 54,5.227
same,EtBr fluorescence (Channel Cycling A.530/585hp),E. coli AG100A; cycle 55,5.134
same,EtBr fluorescence (Channel Cycling A.530/585hp),E. coli AG100A; cycle 56,5.328
same,EtBr fluorescence (Channel Cycling A.530/585hp),E. coli AG100A; cycle 57,5.315
same,EtBr fluorescence (Channel Cycling A.530/585hp),E. coli AG100A; cycle 58,5.365
same,EtBr fluorescence (Channel Cycling A.530/585hp),E. coli AG100A; cycle 59,5.339
same,EtBr fluorescence (Channel Cycling A.530/585hp),E. coli AG100A; cycle 60,5.32
same,EtBr fluorescence (Channel Cycling A.530/585hp),E. coli AG100A; cycle 61,5.417
same,MIC,[5],50 µg/mL

# — paper PMC5433425 (PeerJ, 2017)
